Reference: patent publication US5210193A, “Piperazine derivatives” (American Cyanamid Company, priority 1990, dated 1993)
In brackets after ≈: the same amount, converted by molar mass. Read-outs that look alike come from different tables or passages of the source.

What was measured:
Assay in all cases: in vitro antibacterial MIC, agar plate dilution
Assay type in all cases: cell-based
Citrobacter div. K 82-24 = settings: Citrobacter, DIV.K8224, 18 h, 35° C., read-out: MIC
Procedure, shortened: (§1)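 Agar plate dilution on Mueller-Hinton agar, inoculum approximately 10^4 CFU per organism applied with a Steers replicator. MIC (mcg/ml) is the lowest compound concentration inhibiting visible growth after 18 hours at 35° C.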

[1] = tested on: Enterobacter cloacae VGH 84-39; settings: Enterobacter cloacae, VGH8439, 18 h, 35° C., read-out: MIC
Procedure, shortened: as §1

[2] = tested on: Escherichia coli ATCC 25922; settings: 35° C.
Procedure, shortened: as §1

[3] = tested on: Morganella morganii CMC 84-37; settings: Morganella morganii, CMC8437, 18 h, 35° C., read-out: MIC
Procedure, shortened: as §1

[4] = tested on: Morganella morganii VHG 84-12; settings: Morganella morganii, VHG8412, 18 h, Morganella morganii VHG 84-12 (VGH 84-12 for Example 131), 35° C., read-out: MIC
Procedure, shortened: as §1

[5] = tested on: Pseudomonas aeruginosa VGH 84-3; settings: Pseudomonas aeruginosa, VGH843, 18 h, 35° C., read-out: MIC
Procedure, shortened: as §1

[6] = tested on: Serratia marcescens CMC 83-74; settings: Serratia marcescens, CMC8374, 18 h, 35° C., read-out: MIC
Procedure, shortened: as §1

[7] = tested on: Staphylococcus aureus Smith; settings: Staphylococcus aureus, 18 h, 35° C., read-out: MIC
Procedure, shortened: as §1

[8] = tested on: Streptococcus faecalis CMC 83-120; settings: Enterococcus faecalis, CMC83120, 18 h, 35° C., read-out: MIC
Procedure, shortened: as §1

[9] = Escherichia coli, ATCC25922, 18 h, read-out: MIC

## CN1CCN(c2cc3c(cc2F)c(=O)c(C(=O)O)cn3C2CC2)CC1C1CC1 (stereo not shown) [Example 125, 1-Cyclopropyl-7-(3-cyclopropyl-4-methyl-1-piperazinyl) -6-fluoro-1,4-dihydro-4-oxo-3-quinolinecarboxylic acid]
Citrobacter div. K 82-24
  MIC: 0.25 µg/mL (≈ 0.649 µM)
[1]
  MIC: 0.5 µg/mL (≈ 1.3 µM)
[2]; 18 hours
  MIC: 0.06 µg/mL (≈ 0.156 µM)
[2]; [9]
  MIC: 0.03 µg/mL (≈ 0.0778 µM)
[3]
  MIC: 0.25 µg/mL (≈ 0.649 µM)
[4]
  MIC: 1 µg/mL (≈ 2.59 µM)
[5]
  MIC: > 16 µg/mL
[6]
  MIC: > 16 µg/mL
[7]
  MIC: 0.12 µg/mL (≈ 0.311 µM)
[8]
  MIC: 4 µg/mL (≈ 10.4 µM)

## O=C(O)c1cn(C2CC2)c2cc(N3CCNC(c4ccoc4)C3)c(F)cc2c1=O (stereo not shown) [Example 92]
Citrobacter div. K 82-24
  MIC: 0.06 µg/mL (≈ 0.151 µM)
[1]
  MIC: 0.12 µg/mL (≈ 0.302 µM)
[2]; 18 hours
  MIC: 0.12 µg/mL (≈ 0.302 µM)
[2]; [9]
  MIC: 0.06 µg/mL (≈ 0.151 µM)
[3]
  MIC: 0.06 µg/mL (≈ 0.151 µM)
[4]
  MIC: 0.25 µg/mL (≈ 0.629 µM)
[5]
  MIC: 16 µg/mL (≈ 40.3 µM)
[6]
  MIC: 8 µg/mL (≈ 20.1 µM)
[7]
  MIC: 0.03 µg/mL (≈ 0.0755 µM)
[8]
  MIC: 1 µg/mL (≈ 2.52 µM)

## CCn1cc(C(=O)O)c(=O)c2cc(F)c(N3CCN(C)C(c4ccnn4C)C3)cc21 (stereo not shown) [Example 110, 1-Ethyl-6-fluoro-1,4-dihydro-7-[4-methyl-3-(1-methyl-1H-pyrazol-5-yl) -1-piperazinyl]-4-oxo-3-quinolinecarboxylic acid]
Citrobacter div. K 82-24
  MIC: 8 µg/mL (≈ 19.3 µM)
[1]
  MIC: 8 µg/mL (≈ 19.3 µM)
[2]; [9]
  MIC: 1 µg/mL (≈ 2.42 µM)
[4]
  MIC: > 16 µg/mL
[5]
  MIC: > 16 µg/mL
[6]
  MIC: > 16 µg/mL
[7]
  MIC: 0.25 µg/mL (≈ 0.605 µM)
[8]
  MIC: 16 µg/mL (≈ 38.7 µM)

## CCn1cc(C(=O)O)c(=O)c2cc(F)c(N3CCNC(c4ccoc4)C3)cc21 (stereo not shown) [Example 94, 1-Ethyl-6-fluoro-1,4-dihydro-4-oxo-7-[3-(3-furanyl)-1-piperazinyl]-3-quinolinecarboxylic acid]
Citrobacter div. K 82-24
  MIC: 0.25 µg/mL (≈ 0.649 µM)
[1]
  MIC: 0.5 µg/mL (≈ 1.3 µM)
[2]; 18 hours
  MIC: 0.5 µg/mL (≈ 1.3 µM)
[2]; [9]
  MIC: 0.25 µg/mL (≈ 0.649 µM)
[3]
  MIC: 0.12 µg/mL (≈ 0.311 µM)
[4]
  MIC: 1 µg/mL (≈ 2.59 µM)
[5]
  MIC: > 16 µg/mL
[6]
  MIC: 16 µg/mL (≈ 41.5 µM)
[7]
  MIC: 0.12 µg/mL (≈ 0.311 µM)
[8]
  MIC: 4 µg/mL (≈ 10.4 µM)

## CCn1cc(C(=O)O)c(=O)c2cc(F)c(N3CCNC(c4cccnc4)C3)cc21 (stereo not shown) [Example 122]
Citrobacter div. K 82-24
  MIC: 2 µg/mL (≈ 5.05 µM)
[1]
  MIC: 2 µg/mL (≈ 5.05 µM)
[3]
  MIC: 0.25 µg/mL (≈ 0.631 µM)
[4]
  MIC: 8 µg/mL (≈ 20.2 µM)
[5]
  MIC: > 16 µg/mL
[6]
  MIC: > 16 µg/mL
[7]
  MIC: 0.12 µg/mL (≈ 0.303 µM)
[8]
  MIC: 8 µg/mL (≈ 20.2 µM)
